Source: PubChem BioAssay AID2060887 (Molecular Pharmacology Branch, DTP, NCI, 2025)

Tested on: 782815-120-R-J1-PDC complex spheroid viability
Test: Anticancer human tumor 782815-120-R-J1-PDC patient-derived colon adenocarcinoma cell line growth inhibition [RAS]
Conditions: for viability, T/C: stronger effect = lower value; active = viability on the fitted dose curve at most 10% of control; inactive = the rest
In short: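 Agents were tested in combination matrices in half-log decrements from a top concentration at or near clinical Cmax (10 microM if undetermined). Targets were multi-cell spheroids of tumour lines plus HUVEC and MSC stromal cells.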
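Also: spheroids exposed to compounds for 7 days before reading.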
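For viability, T/C in this document: 100% = DMSO vehicle control viability.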

C=CC(=O)Nc1cc(Nc2nccc(-c3cn(C)c4ccccc34)n2)c(OC)cc1N(C)CCN(C)C + C#Cc1c(F)ccc2cc(O)cc(-c3ncc4c(N5CC6CCC(C5)N6)nc(OCC56CCCN5CC(F)C6)nc4c3F)c12
> 1000 nM: IC50 (curve of first compound, second compound 0.0316 µM) | IC50 (curve of first compound, second compound 0.1 µM) | IC50 (curve of first compound, second compound 0.316 µM) | IC50 (curve of first compound, second compound 1 µM) | IC50 (curve of first compound, second compound 3.16 µM) | IC50 (curve of first compound, second compound 10 µM)
inactive: viability, T/C (second compound 0.0316 µM, first compound 0.00316 µM) 99.3% | viability, T/C (second compound 0.0316 µM, first compound 0.01 µM) 93.8% | viability, T/C (second compound 0.0316 µM, first compound 0.0316 µM) 101% | viability, T/C (second compound 0.0316 µM, first compound 0.1 µM) 97.2% | viability, T/C (second compound 0.0316 µM, first compound 0.316 µM) 98.9% | viability, T/C (second compound 0.0316 µM, first compound 1 µM) 93.6% | viability, T/C (second compound 0.1 µM, first compound 0.00316 µM) 103% | viability, T/C (second compound 0.1 µM, first compound 0.01 µM) 97.2% | viability, T/C (second compound 0.1 µM, first compound 0.0316 µM) 97.5% | viability, T/C (second compound 0.1 µM, first compound 0.1 µM) 93.6% | viability, T/C (second compound 0.1 µM, first compound 0.316 µM) 101% | viability, T/C (second compound 0.1 µM, first compound 1 µM) 89.5% | viability, T/C (second compound 0.316 µM, first compound 0.00316 µM) 98.2% | viability, T/C (second compound 0.316 µM, first compound 0.01 µM) 94.3% | viability, T/C (second compound 0.316 µM, first compound 0.0316 µM) 105% | viability, T/C (second compound 0.316 µM, first compound 0.1 µM) 89% | viability, T/C (second compound 0.316 µM, first compound 0.316 µM) 95% | viability, T/C (second compound 0.316 µM, first compound 1 µM) 101% | viability, T/C (second compound 1 µM, first compound 0.00316 µM) 95.5% | viability, T/C (second compound 1 µM, first compound 0.01 µM) 96% | viability, T/C (second compound 1 µM, first compound 0.0316 µM) 101% | viability, T/C (second compound 1 µM, first compound 0.1 µM) 92.4% | viability, T/C (second compound 1 µM, first compound 0.316 µM) 100% | viability, T/C (second compound 1 µM, first compound 1 µM) 101% | viability, T/C (second compound 3.16 µM, first compound 0.00316 µM) 99.9% | viability, T/C (second compound 3.16 µM, first compound 0.01 µM) 101% | viability, T/C (second compound 3.16 µM, first compound 0.0316 µM) 98.4% | viability, T/C (second compound 3.16 µM, first compound 0.1 µM) 94.4% | viability, T/C (second compound 3.16 µM, first compound 0.316 µM) 97% | viability, T/C (second compound 3.16 µM, first compound 1 µM) 95.8% | viability, T/C (second compound 10 µM, first compound 0.00316 µM) 100% | viability, T/C (second compound 10 µM, first compound 0.01 µM) 91.7% | viability, T/C (second compound 10 µM, first compound 0.0316 µM) 110% | viability, T/C (second compound 10 µM, first compound 0.1 µM) 101% | viability, T/C (second compound 10 µM, first compound 0.316 µM) 94.4% | viability, T/C (second compound 10 µM, first compound 1 µM) 91.7%

O=C(c1ccc(F)c(F)c1Nc1ccc(I)cc1F)N1CC(O)([C@@H]2CCCCN2)C1 + CCn1c(-c2cc(N3CCN(C)CC3)cnc2C(C)OC)c2c3cc(ccc31)-c1csc(n1)CC(NC(=O)C1CC1C)C(=O)N1CCCC(N1)C(=O)OCC(C)(C)C2
< 3.16 nM: IC50 (curve of first compound, second compound 0.00949 µM) | IC50 (curve of first compound, second compound 0.03 µM) | IC50 (curve of first compound, second compound 0.0949 µM) | IC50 (curve of first compound, second compound 0.3 µM)
active: viability, T/C (second compound 0.000949 µM, first compound 1 µM) 1.01% | viability, T/C (second compound 0.003 µM, first compound 0.316 µM) 6.64% | viability, T/C (second compound 0.003 µM, first compound 1 µM) 0.53% | viability, T/C (second compound 0.00949 µM, first compound 0.1 µM) 8.14% | viability, T/C (second compound 0.00949 µM, first compound 0.316 µM) 1.43% | viability, T/C (second compound 0.00949 µM, first compound 1 µM) 0.48% | viability, T/C (second compound 0.03 µM, first compound 0.01 µM) 9.75% | viability, T/C (second compound 0.03 µM, first compound 0.0316 µM) 3.83% | viability, T/C (second compound 0.03 µM, first compound 0.1 µM) 1.67% | viability, T/C (second compound 0.03 µM, first compound 0.316 µM) 0.8% | viability, T/C (second compound 0.03 µM, first compound 1 µM) 0.47% | viability, T/C (second compound 0.0949 µM, first compound 0.00316 µM) 5.71% | viability, T/C (second compound 0.0949 µM, first compound 0.01 µM) 2.85% | viability, T/C (second compound 0.0949 µM, first compound 0.0316 µM) 2.06% | viability, T/C (second compound 0.0949 µM, first compound 0.1 µM) 1.08% | viability, T/C (second compound 0.0949 µM, first compound 0.316 µM) 0.77% | viability, T/C (second compound 0.0949 µM, first compound 1 µM) 0.49% | viability, T/C (second compound 0.3 µM, first compound 0.00316 µM) 6.59% | viability, T/C (second compound 0.3 µM, first compound 0.01 µM) 1.81% | viability, T/C (second compound 0.3 µM, first compound 0.0316 µM) 1.42% | viability, T/C (second compound 0.3 µM, first compound 0.1 µM) 0.75% | viability, T/C (second compound 0.3 µM, first compound 0.316 µM) 0.63% | viability, T/C (second compound 0.3 µM, first compound 1 µM) 0.61%
24.1 nM: IC50 (curve of first compound, second compound 0.000949 µM)
inactive: viability, T/C (second compound 0.000949 µM, first compound 0.00316 µM) 75.1% | viability, T/C (second compound 0.000949 µM, first compound 0.01 µM) 64.1% | viability, T/C (second compound 0.000949 µM, first compound 0.0316 µM) 46.5% | viability, T/C (second compound 0.000949 µM, first compound 0.1 µM) 23.2% | viability, T/C (second compound 0.000949 µM, first compound 0.316 µM) 13% | viability, T/C (second compound 0.003 µM, first compound 0.00316 µM) 59.4% | viability, T/C (second compound 0.003 µM, first compound 0.01 µM) 37.5% | viability, T/C (second compound 0.003 µM, first compound 0.0316 µM) 32.3% | viability, T/C (second compound 0.003 µM, first compound 0.1 µM) 17.9% | viability, T/C (second compound 0.00949 µM, first compound 0.00316 µM) 28.2% | viability, T/C (second compound 0.00949 µM, first compound 0.01 µM) 24.9% | viability, T/C (second compound 0.00949 µM, first compound 0.0316 µM) 13.7% | viability, T/C (second compound 0.03 µM, first compound 0.00316 µM) 12.3%
5.51 nM: IC50 (curve of first compound, second compound 0.003 µM)

C[C@@H](NC(=O)c1ncnc(N)c1Cl)c1ncc(C(=O)Nc2cc(C(F)(F)F)c(Cl)cn2)s1
inactive: viability, T/C (compound 0.0316 µM) 105% [middle of 4 runs] | viability, T/C (compound 0.1 µM) 99.3% [middle of 4 runs] | viability, T/C (compound 0.316 µM) 98.1% [middle of 4 runs] | viability, T/C (compound 3.16 µM) 83% [middle of 4 runs] | viability, T/C (compound 10 µM) 62.2% [middle of 4 runs]
> 10000 nM: IC50 (curve of compound)
